Legend:
DU-145 (prostate cancer) = test: MTS cytotoxicity assay, 72 h, DU-145; format: cell-based, human; settings: Homo sapiens, DU-145, 72 h, Table 1
In short: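 IC50 values come from a tetrazolium (MTS) read-out at 490 nm taken after continuous 72 h exposure to a twofold dilution series from 50 down to 0.0975 μmol/L, with compound added one day after seeding.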

HCT 116 = test: MTS cytotoxicity assay, 72 h, HCT 116; format: cell-based; settings: Homo sapiens, HCT-116, 72 h
In short: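 Treatment ran 72 h at 37 °C under 5% CO2, starting the day after plating, across 50–0.0975 μmol/L (dilution factor 2). Metabolic conversion of MTS was read at 490 nm to obtain IC50.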

U2OS = test: MTS cytotoxicity assay, 72 h, U2OS; format: cell-based; settings: Homo sapiens
Plasma stability = format: in vitro ADME; settings: human plasma
[1] = Plasma protein binding, Rapid Equilibrium Dialysis; format: in vitro ADME; settings: read-out: Plasma protein binding % Fraction bound (converted)
Description: (§1) Data from a plasma protein binding study can inform about distribution into tissues of the body and reduction in the amount of drug available to be metabolized or cleared from the body. The measurement of plasma protein binding was performed using a Rapid Equilibrium Dialysis device; 11a and 11b compounds reported a percent of fraction bound around 90%. For the microsomal stability assay, human liver microsomes and NADPH cofactor were used to assess phase I oxidation by cytochrome P450 and flavin monooxygenases. The intrinsic clearance calculated from the microsomal stability assay indicated the medium category for both derivatives (Table 3).

[2] = Parallel Artificial Membrane Permeability Assay (PAMPA); format: in vitro ADME; settings: read-out: PAMPA log Pe (converted)
Excerpt: (§2) The Parallel Artificial Membrane Permeability Assay (PAMPA) has emerged as a primary screen for determining passive transcellular permeability. […] The Caco-2 and MDCK-MDR1 permeability assays are established models of intestinal[37] and blood-brain barriers, respectively.[38]

[3] = Microsomal stability, human liver microsomes with NADPH; format: in vitro ADME; settings: for Category of Intrinsic clearence: calculated from microsomal stability, category per ref 39; for Microsomal stability % Compound remaining 15 min / Microsomal stability % Compound remaining 30 min / Microsomal stability % Compound remaining 60 min: human liver microsomes, NADPH
Description: as §1

[4] = Caco-2 permeability assay; format: in vitro ADME; settings: human, Caco-2; for Papp A→B: cm/s, read-out: Caco-2 Papp (×10^−6)
Excerpt: as §2

Caco-2 monolayer = test: Caco-2 permeability assay; format: in vitro ADME
Excerpt: as §2

MDR1 = test: Caco-2 permeability assay; format: in vitro ADME; settings: human, Caco-2; B–A / A–B
Excerpt: as §2

Row | Structure (SMILES) | IC50 (DU-145 (prostate cancer)) [µM] | IC50 (HCT 116; Table 1) [µM] | IC50 (HCT 116; full Table S1) [µM] | IC50 (U2OS; Table 1) [µM] | IC50 (U2OS; full Table S1) [µM] | Plasma stability % Compound remaining 15 min (Plasma stability) [%] | Plasma stability % Compound remaining 30 min (Plasma stability) [%] | Plasma stability % Compound remaining 60 min (Plasma stability) [%] | fraction unbound [1] | Papp [2] [×10⁻⁶ cm/s] | Category of Intrinsic clearence [3] | Microsomal stability % Compound remaining 15 min [3] [%] | Microsomal stability % Compound remaining 30 min [3] [%] | Microsomal stability % Compound remaining 60 min [3] [%] | recovery [4] [%] | Papp A→B [4] [×10⁻⁶ cm/s] | Caco-2 Active efflux (Caco-2 monolayer) | efflux ratio (MDR1)
1 | C=C(C)[C@@H]1CC[C@]2(C(=O)O)CC[C@]3(C)C(CCC4[C@@]5(C)C=C(c6ccoc6)C(=O)C(C)(C)C5CC[C@]43C)C12 (stereo partly drawn) [Compound 11b, 2-(Furan-3-yl)-3-oxolupa-1,20(29)-dien-28-oic acid] | 5.7 | 20 | 19.9 | 26 | 26.3 | 103 | 104 | 103 | ~0.1 | 0.0162 | Medium | 84 | 69 | 51 | 58.2 | 1.07 | No (less than or very close to the limit of active and passive efflux (≤2)) | 1.77
2 | C=C(C)[C@@H]1CC[C@]2(C(=O)O)CC[C@]3(C)C(CCC4[C@@]5(C)C=C(c6ccco6)C(=O)C(C)(C)C5CC[C@]43C)C12 (stereo partly drawn) [Compound 11a, 2-(Furan-2-yl)-3-oxolupa-1,20(29)-dien-28-oic acid] | 7.9 | 11 | 11.4 | 21 | 20.9 | 103 | 100 | 95 | ~0.1 | 0.0158 | Medium | 88 | 72 | 52 | 68.5 | 0.44 | Yes | 2.33

From article PMC11923649, “Novel C-2 Aromatic Heterocycle-Substituted Triterpenoids Inhibit Hedgehog Signaling in GLI1 Overexpression Cancer Cells” (ACS Omega, 2025)
